Laboratory results: paper PMC7440915, “Discovery of surrogate agonists for visceral fat Treg cells that modulate metabolic indices in vivo” (eLife, 2020)
Where no end group is shown, it is not given here.

Tests used:
vTreg53 Treg cells [1] = assay: Expansion of transferred vTreg53 Treg cells in Spl/LN or VAT after prime and boost; assay type: in vivo, mouse; conditions: compared with adjuvant alone, CFA s.c. then IFA i.p.
Description: (§1) Figure 4. SPs induce proliferation and activation of vTreg53 Treg cells in vitro and in vivo. (A–D) Proliferation and activation of vTreg53 Treg cells by different concentrations of SPs for 3 days in vitro (n = 3). (A) Representative flow cytometric plot of cell division. (B) Summary of cell proliferation. (C) Mean flourescence intensity (MFI) of CD44 staining in clonotype^+ Treg cells. (D) MFI of CD62L staining in clonotype^+ Treg cells. (E) Proliferation of transferred CD45.2^+ vTreg53 Treg cells in the spleen of CD45.1^+ B6 recipient mice immunized s.c. with CFA or CFA/Fat1562 at day 3 (n = 3). […]
(§2) To assess early Treg proliferation following peptide stimulation in vivo, 0.4 million Treg cells were sorted from pooled Spl and LNs of 6-8wk-old male CD45.2^+ Tg^+ Foxp3-GFP^KI/y mice by Moflo, labeled by the CellTrace Violet dye (ThermoFisher Scientific), and were i.v.-injected into 6-8wk old male B6.CD45.1^+ mice. […] Proliferation of clonotype^+ Tregs in the spleen was determined three days later. […] Six weeks later, the recipient mice were immunized with 200 µg CFA/peptides s.c. on the lower back, and one week later were boosted with 100 μg IFA/peptides i.p. After another week, clonotype^+ CD45.2^+ Treg cells from the Spl/LNs or VAT of recipient mice were analyzed by flow cytometry and double-sorted for ultra-low-input RNA-seq. […]

vTreg53 Treg cells [2] = assay: Proliferation of transferred vTreg53 Treg cells in spleen after immunization; assay type: in vivo, mouse; conditions: CFA/Fat1562, 200 µg s.c., three days
Description: as §1, §2

TMYKNPRPMAATG [Fat1562]
expansion of clonotype^+ Treg cells in VAT (vTreg53 Treg cells [1]): > 25 fold | proliferation of transferred clonotype^+ Treg cells in spleen (vTreg53 Treg cells [2]): robust proliferation
